Where two headings read alike, the source gives them in different places.
Legend:
Experiment in all cases: biochemical
Set-up in all cases: KINOMEscan active site-directed competition binding assay (DiscoveRx), 456 kinases, per cent of control at 300 nM
Settings in all cases: read-out: Percent of Control (%)
[1] = target: EGFR(S752-I759del) (Homo sapiens, UniProt P00533, DEL752-759)
How it was run: (§1)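 Single-concentration selectivity screen: compound 300 nmol/L; 456-kinase panel; active-site-directed competition binding read-out.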

[2] = target: LTK (Homo sapiens, UniProt P29376)
How it was run: as §1

[3] = target: CAMK2D (Homo sapiens, UniProt Q13557)
Chain of CAMK2D (Q13557 whole entry): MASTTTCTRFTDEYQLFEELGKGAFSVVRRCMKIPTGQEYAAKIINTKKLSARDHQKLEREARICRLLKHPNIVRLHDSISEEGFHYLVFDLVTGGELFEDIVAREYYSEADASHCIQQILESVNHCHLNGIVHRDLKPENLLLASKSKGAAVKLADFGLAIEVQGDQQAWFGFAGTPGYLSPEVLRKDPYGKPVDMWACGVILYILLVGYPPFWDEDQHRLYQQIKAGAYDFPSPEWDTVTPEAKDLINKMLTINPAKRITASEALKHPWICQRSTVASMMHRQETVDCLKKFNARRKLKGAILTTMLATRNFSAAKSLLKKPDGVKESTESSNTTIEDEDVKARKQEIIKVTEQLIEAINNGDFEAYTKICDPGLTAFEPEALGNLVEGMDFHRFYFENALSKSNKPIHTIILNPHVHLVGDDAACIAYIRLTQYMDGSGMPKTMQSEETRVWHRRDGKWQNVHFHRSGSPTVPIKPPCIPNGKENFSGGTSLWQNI
How it was run: as §1

[4] = target: SRC (Homo sapiens, UniProt P12931)
How it was run: as §1

[5] = target: BRAF(V600E) (Homo sapiens, UniProt P15056, V600E)
How it was run: as §1

[6] = target: T1, YES (Homo sapiens, UniProt P07947)
T1 construct: gene YES1
T1 sequence (P07947 whole entry): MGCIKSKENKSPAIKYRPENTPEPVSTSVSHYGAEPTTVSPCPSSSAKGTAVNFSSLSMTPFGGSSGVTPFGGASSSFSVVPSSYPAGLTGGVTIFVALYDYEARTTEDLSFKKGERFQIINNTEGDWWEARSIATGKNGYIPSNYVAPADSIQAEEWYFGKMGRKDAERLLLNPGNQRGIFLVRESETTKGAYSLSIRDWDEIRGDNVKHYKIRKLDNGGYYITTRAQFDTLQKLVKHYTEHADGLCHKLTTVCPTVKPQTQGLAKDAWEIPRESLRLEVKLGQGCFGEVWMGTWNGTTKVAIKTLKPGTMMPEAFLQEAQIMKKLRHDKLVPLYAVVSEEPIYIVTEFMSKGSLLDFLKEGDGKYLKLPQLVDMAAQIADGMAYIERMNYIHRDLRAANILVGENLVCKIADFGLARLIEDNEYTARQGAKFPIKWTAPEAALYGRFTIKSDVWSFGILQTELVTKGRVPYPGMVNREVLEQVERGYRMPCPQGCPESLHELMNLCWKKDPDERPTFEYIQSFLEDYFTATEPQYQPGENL
How it was run: as §1

[7] = target: NEK3 (Homo sapiens, UniProt P51956)
Chain of NEK3 (P51956 whole entry): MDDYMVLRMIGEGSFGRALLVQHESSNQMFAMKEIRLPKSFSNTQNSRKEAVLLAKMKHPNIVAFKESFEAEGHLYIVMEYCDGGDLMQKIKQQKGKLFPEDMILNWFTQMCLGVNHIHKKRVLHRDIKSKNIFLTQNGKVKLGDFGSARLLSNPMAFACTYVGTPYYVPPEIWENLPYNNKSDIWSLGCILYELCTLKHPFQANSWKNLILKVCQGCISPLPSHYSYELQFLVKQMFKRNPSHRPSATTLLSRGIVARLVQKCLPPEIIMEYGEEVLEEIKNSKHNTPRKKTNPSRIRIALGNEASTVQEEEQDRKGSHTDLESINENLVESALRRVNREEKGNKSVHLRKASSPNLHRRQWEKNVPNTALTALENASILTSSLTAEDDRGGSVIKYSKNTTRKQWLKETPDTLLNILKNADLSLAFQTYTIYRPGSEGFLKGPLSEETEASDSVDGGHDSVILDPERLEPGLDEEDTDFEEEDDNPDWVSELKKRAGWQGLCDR
How it was run: as §1

[8] = target: MET (Homo sapiens, UniProt P08581)
How it was run: as §1

[9] = target: T2, DCAMKL1 (Homo sapiens, UniProt O15075)
T2 construct: gene DCLK1
T2 sequence (O15075 whole entry): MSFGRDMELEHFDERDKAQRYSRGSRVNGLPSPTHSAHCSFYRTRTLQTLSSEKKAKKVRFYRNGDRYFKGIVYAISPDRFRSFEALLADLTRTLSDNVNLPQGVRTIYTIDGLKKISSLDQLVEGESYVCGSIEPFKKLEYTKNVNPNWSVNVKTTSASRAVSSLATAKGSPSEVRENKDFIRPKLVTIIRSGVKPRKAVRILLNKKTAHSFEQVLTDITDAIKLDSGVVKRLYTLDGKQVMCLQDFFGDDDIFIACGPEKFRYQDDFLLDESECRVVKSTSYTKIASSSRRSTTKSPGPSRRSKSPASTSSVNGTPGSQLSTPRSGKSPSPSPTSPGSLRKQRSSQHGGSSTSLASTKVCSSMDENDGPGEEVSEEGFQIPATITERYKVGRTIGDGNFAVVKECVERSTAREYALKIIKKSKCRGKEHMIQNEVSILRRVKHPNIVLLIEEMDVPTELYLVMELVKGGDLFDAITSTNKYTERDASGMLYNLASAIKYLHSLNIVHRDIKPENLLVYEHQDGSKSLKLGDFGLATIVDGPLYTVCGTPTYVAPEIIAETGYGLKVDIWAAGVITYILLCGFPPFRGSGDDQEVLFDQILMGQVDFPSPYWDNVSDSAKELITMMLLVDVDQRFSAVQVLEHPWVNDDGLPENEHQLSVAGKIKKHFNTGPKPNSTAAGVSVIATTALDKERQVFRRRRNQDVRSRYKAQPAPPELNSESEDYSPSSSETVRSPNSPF
How it was run: as §1

[10] = target: PLK2 (Homo sapiens, UniProt Q9NYY3)
How it was run: as §1

[11] = target: T3, ERK3 (Homo sapiens, UniProt Q16659)
T3 construct: gene MAPK6
How it was run: as §1

[12] = target: SYK (Homo sapiens, UniProt P43405)
How it was run: as §1

[13] = target: MAPKAPK5 (Homo sapiens, UniProt Q8IW41)
How it was run: as §1

[14] = target: IRAK1 (Homo sapiens, UniProt P51617)
How it was run: as §1

[15] = target: T4, MLCK (Homo sapiens, UniProt Q32MK0)
T4 construct: gene MYLK3
T4 sequence (Q32MK0 whole entry): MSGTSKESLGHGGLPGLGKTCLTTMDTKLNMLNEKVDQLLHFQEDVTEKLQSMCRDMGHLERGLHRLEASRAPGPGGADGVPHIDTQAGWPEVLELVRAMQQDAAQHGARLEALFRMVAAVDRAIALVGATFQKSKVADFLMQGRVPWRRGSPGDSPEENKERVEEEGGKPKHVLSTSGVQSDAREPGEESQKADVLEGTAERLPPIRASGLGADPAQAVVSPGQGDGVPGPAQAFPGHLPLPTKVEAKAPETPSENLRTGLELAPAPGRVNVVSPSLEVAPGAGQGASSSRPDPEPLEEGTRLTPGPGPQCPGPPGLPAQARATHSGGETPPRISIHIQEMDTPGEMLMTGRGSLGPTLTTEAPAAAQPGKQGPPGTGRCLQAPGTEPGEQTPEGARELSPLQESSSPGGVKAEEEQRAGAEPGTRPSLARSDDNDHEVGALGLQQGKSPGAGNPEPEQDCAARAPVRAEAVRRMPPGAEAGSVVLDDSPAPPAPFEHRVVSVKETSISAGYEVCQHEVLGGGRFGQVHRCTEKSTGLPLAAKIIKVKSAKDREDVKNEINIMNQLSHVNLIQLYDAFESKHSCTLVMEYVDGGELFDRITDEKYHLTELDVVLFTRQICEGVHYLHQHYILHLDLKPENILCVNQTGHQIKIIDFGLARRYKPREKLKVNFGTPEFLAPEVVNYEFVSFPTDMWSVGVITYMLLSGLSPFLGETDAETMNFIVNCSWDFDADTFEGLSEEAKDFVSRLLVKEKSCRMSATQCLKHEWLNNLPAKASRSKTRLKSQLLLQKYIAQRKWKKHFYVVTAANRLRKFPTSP
How it was run: as §1

[16] = target: CLK1 (Homo sapiens, UniProt P49759)
Chain of CLK1 (P49759 whole entry): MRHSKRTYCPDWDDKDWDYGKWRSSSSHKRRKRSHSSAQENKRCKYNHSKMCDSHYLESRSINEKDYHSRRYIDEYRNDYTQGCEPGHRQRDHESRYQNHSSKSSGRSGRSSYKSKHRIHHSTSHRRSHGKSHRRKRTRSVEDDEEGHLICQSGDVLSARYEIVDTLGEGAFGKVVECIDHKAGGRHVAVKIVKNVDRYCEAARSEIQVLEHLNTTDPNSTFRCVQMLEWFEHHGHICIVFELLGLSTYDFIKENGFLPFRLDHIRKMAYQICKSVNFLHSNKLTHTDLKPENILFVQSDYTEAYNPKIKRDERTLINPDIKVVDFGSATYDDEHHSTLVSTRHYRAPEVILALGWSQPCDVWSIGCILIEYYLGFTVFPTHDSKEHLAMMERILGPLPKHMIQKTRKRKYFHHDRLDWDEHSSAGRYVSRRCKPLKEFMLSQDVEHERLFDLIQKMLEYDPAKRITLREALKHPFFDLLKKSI
How it was run: as §1

[17] = target: BMPR1A (Homo sapiens, UniProt P36894)
How it was run: as §1

[18] = target: T5, RSK4(Kin.Dom.2-C-terminal) (Homo sapiens, UniProt Q9UK32)
T5 construct: gene RPS6KA6; Kin.Dom.2-C-terminal
How it was run: as §1

[19] = target: PIM2 (Homo sapiens, UniProt Q9P1W9)
How it was run: as §1

[20] = target: T6, MINK (Homo sapiens, UniProt Q8N4C8)
T6 construct: gene MINK1
How it was run: as §1

[21] = target: ROCK1 (Homo sapiens, UniProt Q13464)
Chain of ROCK1 (Q13464 whole entry): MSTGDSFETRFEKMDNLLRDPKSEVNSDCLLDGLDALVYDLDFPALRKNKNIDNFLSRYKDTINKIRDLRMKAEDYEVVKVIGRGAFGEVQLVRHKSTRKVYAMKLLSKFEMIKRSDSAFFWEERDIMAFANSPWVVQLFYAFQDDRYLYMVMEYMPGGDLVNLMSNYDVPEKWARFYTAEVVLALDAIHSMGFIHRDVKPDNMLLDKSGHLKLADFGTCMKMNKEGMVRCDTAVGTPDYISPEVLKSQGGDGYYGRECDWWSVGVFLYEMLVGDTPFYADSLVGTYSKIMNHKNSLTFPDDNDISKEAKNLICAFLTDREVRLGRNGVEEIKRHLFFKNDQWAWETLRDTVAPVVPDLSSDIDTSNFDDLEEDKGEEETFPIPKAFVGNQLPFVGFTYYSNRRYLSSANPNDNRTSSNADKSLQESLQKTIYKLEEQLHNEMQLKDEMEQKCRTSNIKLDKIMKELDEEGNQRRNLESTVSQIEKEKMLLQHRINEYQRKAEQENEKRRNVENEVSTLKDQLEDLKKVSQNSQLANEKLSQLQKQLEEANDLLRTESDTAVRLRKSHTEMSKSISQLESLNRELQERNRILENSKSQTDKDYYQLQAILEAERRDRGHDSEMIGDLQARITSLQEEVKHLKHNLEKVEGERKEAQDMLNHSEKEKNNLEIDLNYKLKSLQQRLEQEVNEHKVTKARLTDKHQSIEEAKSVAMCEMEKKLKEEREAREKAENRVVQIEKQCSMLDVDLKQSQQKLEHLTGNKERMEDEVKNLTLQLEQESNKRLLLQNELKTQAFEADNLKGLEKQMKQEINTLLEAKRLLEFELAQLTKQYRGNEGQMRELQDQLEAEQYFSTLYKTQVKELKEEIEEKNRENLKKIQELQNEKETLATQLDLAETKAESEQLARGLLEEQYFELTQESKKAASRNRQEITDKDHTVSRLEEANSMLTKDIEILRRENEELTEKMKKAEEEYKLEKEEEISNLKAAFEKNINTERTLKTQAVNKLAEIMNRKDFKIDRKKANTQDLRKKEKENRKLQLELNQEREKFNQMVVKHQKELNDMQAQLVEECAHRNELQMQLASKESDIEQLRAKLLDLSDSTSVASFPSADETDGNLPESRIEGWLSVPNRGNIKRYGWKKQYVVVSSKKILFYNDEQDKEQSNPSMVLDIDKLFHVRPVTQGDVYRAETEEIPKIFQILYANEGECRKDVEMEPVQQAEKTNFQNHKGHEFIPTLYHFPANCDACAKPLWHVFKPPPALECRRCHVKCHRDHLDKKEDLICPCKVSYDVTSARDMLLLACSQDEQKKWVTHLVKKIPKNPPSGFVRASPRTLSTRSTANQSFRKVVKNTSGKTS
How it was run: as §1

[22] = target: PLK3 (Homo sapiens, UniProt Q9H4B4)
How it was run: as §1

Compound: O=C(/C=C/c1cnccc1-c1ccc(F)cc1)Nc1ccc(CCc2nnco2)cc1 [T-418, (2E)-3-(4-(4-fluorophenyl)pyridin-3-yl)-N-(4-(2-(1,3,4-oxadiazol-2-yl)ethyl)phenyl)acrylamide]
- remaining binding at 0.3 µM ([1]; sheet T-418): 98%
- remaining binding at 0.3 µM ([2]; sheet T-418): 100%
- remaining binding at 0.3 µM ([3]; sheet T-418): 100%
- remaining binding at 0.3 µM ([4]; sheet T-418): 90%
- remaining binding at 0.3 µM ([5]; sheet T-418): 100%
- remaining binding at 0.3 µM ([6]; sheet T-418): 100%
- remaining binding at 0.3 µM ([7]; sheet T-418): 100%
- remaining binding at 0.3 µM ([8]; sheet T-418): 92%
- remaining binding at 0.3 µM ([9]; sheet T-418): 52%
- remaining binding at 0.3 µM ([10]; sheet T-418): 57%
- remaining binding at 0.3 µM ([11]; sheet T-418): 68%
- remaining binding at 0.3 µM ([12]; sheet T-418): 100%
- remaining binding at 0.3 µM ([13]; sheet T-418): 92%
- remaining binding at 0.3 µM ([14]; sheet T-418): 100%
- remaining binding at 0.3 µM ([15]; sheet T-418): 88%
- remaining binding at 0.3 µM ([16]; sheet T-418): 100%
- remaining binding at 0.3 µM ([17]; sheet T-418): 79%
- remaining binding at 0.3 µM ([18]; sheet T-418): 100%
- remaining binding at 0.3 µM ([19]; sheet T-418): 89%
- remaining binding at 0.3 µM ([20]; sheet T-418): 80%
- remaining binding at 0.3 µM ([21]; sheet T-418): 81%
- remaining binding at 0.3 µM ([22]; sheet T-418): 82%

Compound: Cc1ncccc1Oc1sc(C(N)=O)c2c1-c1c(cnn1C)CC2 [T-474, 1-methyl-8-((2-methylpyridin-3-yl)oxy)-4,5-dihydro-1H-thieno[3,4-g]indazole-6-carboxamide]
- remaining binding at 0.3 µM [1]: 100%
- remaining binding at 0.3 µM [2]: 100%
- remaining binding at 0.3 µM [3]: 100%
- remaining binding at 0.3 µM [4]: 96%
- remaining binding at 0.3 µM [5]: 100%
- remaining binding at 0.3 µM [6]: 100%
- remaining binding at 0.3 µM [7]: 100%
- remaining binding at 0.3 µM [8]: 100%
- remaining binding at 0.3 µM [9]: 69%
- remaining binding at 0.3 µM [10]: 67%
- remaining binding at 0.3 µM [11]: 78%
- remaining binding at 0.3 µM [12]: 100%
- remaining binding at 0.3 µM [13]: 98%
- remaining binding at 0.3 µM [14]: 100%
- remaining binding at 0.3 µM [15]: 100%
- remaining binding at 0.3 µM [16]: 32%
- remaining binding at 0.3 µM [17]: 100%
- remaining binding at 0.3 µM [18]: 100%
- remaining binding at 0.3 µM [19]: 80%
- remaining binding at 0.3 µM [20]: 100%
- remaining binding at 0.3 µM [21]: 100%
- remaining binding at 0.3 µM [22]: 88%

Reference: paper PMC5862592, “CDK8/19 inhibition induces premature G1/S transition and ATR-dependent cell death in prostate cancer cells” (Oncotarget, 2018)
